Data on 7 molecules can be found in patent US6001880A, “Alkylenediamine derivative, anti-ulcer drug, and antibacterial drug” (Shiseido Co., Ltd., priority 1997, dated 1999).

Series [1] relates to stress ulcer formation in rats. Put plainly: WIS: Restraint and Water Immersion Stress-Induced Ulcer Inhibition Test. It is filed as in vivo, rat (male Crj:SD or Slc:SD). To be noted: 100 mg/kg oral, 10 minutes before 7 h restraint and water immersion (21° C.). The method in brief:
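Overnight-fasted male SD rats (6–7 weeks, n=5–8) dosed orally at 100 mg/kg in 0.3% CMC-Na or 0.05% Tween 80; 10 min later restrained and immersed to xiphoid in 21° C water for 7 h. Ulcer index is summed glandular erosion length; inhibition % = (1 − UI sample/UI control).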

Series [2] has as its system isolated gastric fundic gland. Briefly: CAP: Acid Secretion Inhibition Test In Vitro ([14C]-aminopyrine uptake). Type of series: cell-based, rabbit (male Japanese White). To be noted: Oryctolagus cuniculus; final concentration 10^-5 M; histamine 10^-5 M stimulation; read-out: CAP: acid secretion inhibitory rate. The method in brief: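 Collagenase-isolated rabbit gastric fundic glands (1.6×10^6 cells/ml) were stimulated with 10^-5 M histamine in the presence of test compound and [14C]-aminopyrine, then shaken 40 min at 37 °C. Pellet versus supernatant radioactivity, corrected with a 20 mM NaSCN sample, gives specific aminopyrine accumulation as the acid-secretion index; duplicates.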

A further series deals with mice. Further details: species or system mouse (male Slc:ICR). Conditions: mouse, in vivo. As to the method: AT: Single Dose Toxicity Pretest
Male Slc:ICR mice (5-week-old) were used. Each group has 3 to 5 mice and each mouse was fasted, but allowed free access to water, for 4 to 5 hours from 9 a.m. in the test day. Then, 2,000 mg/10 ml/kg of the sample compound dissolved or suspended in an aqueous solution of 0.5% sodium carboxymethyl cellulose was orally administered thereto. To a control, only the vehicle was administered. […] The body weight was measured before and after the fasting as well as at the same time everyday. The dead animals were immediately subjected to autopsy and their organs were observed by naked eyes. Also, the living animals were sacrificed with ether or carbon dioxide one week after the administration and then their organs were observed by naked eyes.
The toxicity at the single dose of 2,000 mg/kg of the sample compound was expressed as being classified into 5 levels.
5: mortality rate is 0%; no toxicity is found at all both in behavior and organs.
4: Mortality rate is 0%; while no toxicity is found in organs, slight toxicity is observed in behavior or body weight increase.
3: While there is a dead animal (though not all the animals are dead), no toxicity is found in organs.
2: Regardless of whether there is a dead animal or not, toxicity is found in organs.
1: All the animals are dead.

For `CCN(CC)CCNC(=O)c1cc(OCC=C(C)C)cc(OCC=C(C)C)c1` [Example 14], in series [1], the “WIS: ulcer formation inhibitory rate” value amounted to 86%. For the same molecule, in series [2], the inhibition at 10 µM is 100%. Moreover, the “AT: single dose toxicity level” value in the series on mice stood at 5.

On to `CCN(CC)CCNC(=O)c1cc(OC/C=C(\C)CCC=C(C)C)ccc1OC/C=C(\C)CCC=C(C)C` [Example 16], for which the “WIS: ulcer formation inhibitory rate” value in series [1] was 82%. For the same molecule, the inhibition at 10 µM in series [2] came out at 100%. Also, the “AT: single dose toxicity level” value in the series on mice is 5.

For `CC(C)=CCC/C(C)=C/COc1ccc(OC/C=C(\C)CCC=C(C)C)c(C(=O)NCCN(C(C)C)C(C)C)c1` [Example 17], the “WIS: ulcer formation inhibitory rate” value in series [1] stood at 62%. Further, in series [2], the inhibition at 10 µM is 100%. The “AT: single dose toxicity level” value with mice is 5.

With `CCN(CC=C(C)C)c1ccc(C(=O)NCCN(C(C)C)C(C)C)cc1` [Example 28], the “WIS: ulcer formation inhibitory rate” value in series [1] is 87%. In addition, the inhibition at 10 µM in series [2] amounted to 27.3%.

As for `CCN(CC)CCNC(=O)c1cc(OC)c(OC/C=C(\C)CCC=C(C)C)c(OC)c1` [Example 37], in series [1], the “WIS: ulcer formation inhibitory rate” value is reported as 69%. Further, in series [2], the inhibition at 10 µM came to 99.3%. Further, the “AT: single dose toxicity level” value in the series with mice stood at 4.

Regarding `CCN(CC)CCNC(=O)c1cc(OC)c(OC/C=C(/C)CCC=C(C)C)c(OC)c1` [Example 38], the “WIS: ulcer formation inhibitory rate” value in series [1] is given as 86%. Further, in series [2], the inhibition at 10 µM was 99.8%. Further, in the series on mice, the “AT: single dose toxicity level” value was 5.

For the molecule `COc1cc(C(=O)NCCN(C)C)cc(OC/C=C(\C)CCC=C(C)C)c1OC` [Example 42], the “WIS: ulcer formation inhibitory rate” value in series [1] is reported as 81%. The inhibition at 10 µM in series [2] was determined as 98.6%. Further, the “AT: single dose toxicity level” value with mice was 3.
